# Results: PubChem BioAssay AID2060623 (Molecular Pharmacology Branch, DTP, NCI, 2025)
# Several values for one entry are separate records, joined by “and”; a condition that tells them apart may be missing. Identical values can stand only once.
# Test system: 227483-062-R1-J1-PDC complex spheroids with HUVEC/MSC, viability
# Test: Anticancer human tumor 227483-062-R1-J1-PDC patient-derived pancreatic carcinoma cell line growth inhibition [CLK]
# Settings: for viability, T/C: stronger effect = lower value
# In short: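 Multi-cell-type spheroids combined patient-derived tumor cells with HUVEC endothelial cells and human mesenchymal stem cells. Paired agents were dosed in half-log steps down from about clinical Cmax, or from 10 microM where Cmax was unknown.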
# [1] = curve of first compound, second compound 0.0316 µM
# [2] = curve of first compound, second compound 0.1 µM
# [3] = curve of first compound, second compound 0.316 µM
# [4] = curve of first compound, second compound 1 µM
# [5] = curve of first compound, second compound 3.16 µM
# [6] = curve of first compound, second compound 10 µM
# [7] = second compound 0.0316 µM, first compound 0.0316 µM
# [8] = second compound 0.0316 µM, first compound 0.1 µM
# [9] = second compound 0.0316 µM, first compound 0.316 µM
# [10] = second compound 0.0316 µM, first compound 1 µM
# [11] = second compound 0.0316 µM, first compound 3.16 µM
# [12] = second compound 0.0316 µM, first compound 10 µM
# [13] = second compound 0.1 µM, first compound 0.0316 µM
# [14] = second compound 0.1 µM, first compound 0.1 µM
# [15] = second compound 0.1 µM, first compound 0.316 µM
# [16] = second compound 0.1 µM, first compound 1 µM
# [17] = second compound 0.1 µM, first compound 3.16 µM
# [18] = second compound 0.1 µM, first compound 10 µM
# [19] = second compound 0.316 µM, first compound 0.0316 µM
# [20] = second compound 0.316 µM, first compound 0.1 µM
# [21] = second compound 0.316 µM, first compound 0.316 µM
# [22] = second compound 0.316 µM, first compound 1 µM
# [23] = second compound 0.316 µM, first compound 3.16 µM
# [24] = second compound 0.316 µM, first compound 10 µM
# [25] = second compound 1 µM, first compound 0.0316 µM
# [26] = second compound 1 µM, first compound 0.1 µM
# [27] = second compound 1 µM, first compound 0.316 µM
# [28] = second compound 1 µM, first compound 1 µM
# [29] = second compound 1 µM, first compound 3.16 µM
# [30] = second compound 1 µM, first compound 10 µM
# [31] = second compound 3.16 µM, first compound 0.0316 µM
# [32] = second compound 3.16 µM, first compound 0.1 µM
# [33] = second compound 3.16 µM, first compound 0.316 µM
# [34] = second compound 3.16 µM, first compound 1 µM
# [35] = second compound 3.16 µM, first compound 3.16 µM
# [36] = second compound 3.16 µM, first compound 10 µM
# [37] = second compound 10 µM, first compound 0.0316 µM
# [38] = second compound 10 µM, first compound 0.1 µM
# [39] = second compound 10 µM, first compound 0.316 µM
# [40] = second compound 10 µM, first compound 1 µM
# [41] = second compound 10 µM, first compound 3.16 µM
# [42] = second compound 10 µM, first compound 10 µM
# 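Note: spheroids exposed to compounds for seven days before readout.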
# 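Throughout, for viability, T/C: percent of DMSO vehicle control luminescence as 100% viability.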
structure (smiles),measurement,setting,value
CC1(C)CCC(CN2CCN(c3ccc(C(=O)NS(=O)(=O)c4ccc(NCC5CCOCC5)c([N+](=O)[O-])c4)c(Oc4cnc5[nH]ccc5c4)c3)CC2)=C(c2ccc(Cl)cc2)C1,"viability, T/C",compound 0.0316 µM,92.4% and 103%
same,"viability, T/C",compound 0.1 µM,112% and 85.4%
same,"viability, T/C",compound 0.316 µM,95.4% and 94.4%
same,"viability, T/C",compound 1 µM,107% and 104%
same,"viability, T/C",compound 3.16 µM,106% and 112%
same,"viability, T/C",compound 10 µM,13.2% and 9.57%
same,IC50,curve of compound,6.22 µM and 5.97 µM
CC(=O)O[C@H]1C(=O)[C@@]2(C)[C@H]([C@H](OC(=O)c3ccccc3)[C@]3(O)C[C@H](OC(=O)[C@H](O)[C@@H](NC(=O)c4ccccc4)c4ccccc4)C(C)=C1C3(C)C)[C@]1(OC(C)=O)CO[C@@H]1C[C@@H]2O + CNC(=O)c1ccc(Nc2nc(OC3CCCC3)c3c(-c4ccc5nc(C)oc5c4)c[nH]c3n2)c(OC)c1,IC50,[1],< 0.0316 µM
same,IC50,[2],> 10 µM
same,IC50,[3],> 10 µM
same,IC50,[4],> 10 µM
same,IC50,[5],< 0.0316 µM
same,IC50,[6],< 0.0316 µM
same,"viability, T/C",[7],29.7%
same,"viability, T/C",[8],27.1%
same,"viability, T/C",[9],35.6%
same,"viability, T/C",[10],43.4%
same,"viability, T/C",[11],48.3%
same,"viability, T/C",[12],75.9%
same,"viability, T/C",[13],53.8%
same,"viability, T/C",[14],62.1%
same,"viability, T/C",[15],71.1%
same,"viability, T/C",[16],85.1%
same,"viability, T/C",[17],77.1%
same,"viability, T/C",[18],101%
same,"viability, T/C",[19],70.4%
same,"viability, T/C",[20],95.6%
same,"viability, T/C",[21],98.9%
same,"viability, T/C",[22],101%
same,"viability, T/C",[23],99.3%
same,"viability, T/C",[24],95.8%
same,"viability, T/C",[25],60.8%
same,"viability, T/C",[26],69.2%
same,"viability, T/C",[27],72.7%
same,"viability, T/C",[28],101%
same,"viability, T/C",[29],96.7%
same,"viability, T/C",[30],89.4%
same,"viability, T/C",[31],46.7%
same,"viability, T/C",[32],58.9%
same,"viability, T/C",[33],62.9%
same,"viability, T/C",[34],61.5%
same,"viability, T/C",[35],70.1%
same,"viability, T/C",[36],54.6%
same,"viability, T/C",[37],37.9%
same,"viability, T/C",[38],49.9%
same,"viability, T/C",[39],50.3%
same,"viability, T/C",[40],61.4%
same,"viability, T/C",[41],49.5%
same,"viability, T/C",[42],55.5%
C=C(F)C(=O)N1CCN(c2nc(OCC3CCCN3C)nc3c2CCN(c2cccc4cccc(Cl)c24)C3)CC1CC#N (stereo not given),"viability, T/C",compound 0.0316 µM,107% and 89.9%
same,"viability, T/C",compound 0.1 µM,108% and 97.9%
same,"viability, T/C",compound 0.316 µM,109% and 91.9%
same,"viability, T/C",compound 1 µM,113% and 122%
same,"viability, T/C",compound 3.16 µM,86.3% and 89%
same,"viability, T/C",compound 10 µM,19% and 28%
same,IC50,curve of compound,5.88 µM and 6.6 µM
COc1ccc([C@@H](O)c2cc(-c3ncnc4cc(N5CCOCC5)ccc34)c(F)cc2Cl)nn1,"viability, T/C",compound 0.0316 µM,102% and 90.1%
same,"viability, T/C",compound 0.1 µM,101% and 86%
same,"viability, T/C",compound 0.316 µM,94.7% and 86.4%
same,"viability, T/C",compound 1 µM,95.4% and 98.6%
same,"viability, T/C",compound 3.16 µM,92.6% and 80.2%
same,"viability, T/C",compound 10 µM,92.5% and 71%
same,IC50,curve of compound,> 10 µM
COc1ccc([C@@H](O)c2cc(-c3ncnc4cc(N5CCOCC5)ccc34)c(F)cc2Cl)nn1 + CN1CCN(c2cc(C(=O)Nc3cc4cc(-c5cnn(C)c5)ccc4cn3)ccn2)CC1,IC50,[1],> 10 µM
same,IC50,[2],> 10 µM
same,IC50,[3],< 0.0316 µM
same,IC50,[4],< 0.0316 µM
same,IC50,[5],< 0.0316 µM
same,IC50,[6],< 0.0316 µM
same,"viability, T/C",[7],95.2%
same,"viability, T/C",[8],107%
same,"viability, T/C",[9],115%
same,"viability, T/C",[10],99%
same,"viability, T/C",[11],75.7%
same,"viability, T/C",[12],66.6%
same,"viability, T/C",[13],60.8%
same,"viability, T/C",[14],69.8%
same,"viability, T/C",[15],54.1%
same,"viability, T/C",[16],73.5%
same,"viability, T/C",[17],66.2%
same,"viability, T/C",[18],48.8%
same,"viability, T/C",[19],5.56%
same,"viability, T/C",[20],4.19%
same,"viability, T/C",[21],4.12%
same,"viability, T/C",[22],4.66%
same,"viability, T/C",[23],5.44%
same,"viability, T/C",[24],3.88%
same,"viability, T/C",[25],1.55%
same,"viability, T/C",[26],3.72%
same,"viability, T/C",[27],3.44%
same,"viability, T/C",[28],2.14%
same,"viability, T/C",[29],2.19%
same,"viability, T/C",[30],1.68%
same,"viability, T/C",[31],5.54%
same,"viability, T/C",[32],3.34%
same,"viability, T/C",[33],3.99%
same,"viability, T/C",[34],3.31%
same,"viability, T/C",[35],3.4%
same,"viability, T/C",[36],2.14%
same,"viability, T/C",[37],2.64%
same,"viability, T/C",[38],1.93%
same,"viability, T/C",[39],2.01%
same,"viability, T/C",[40],1.95%
same,"viability, T/C",[41],1.9%
same,"viability, T/C",[42],1.68%
